Source: ChEMBL document CHEMBL1909046, “DrugMatrix in vitro pharmacology data”

What was measured:
[1] = biological target: T1, C-X-C chemokine receptor type 2 (Homo sapiens, UniProt P25025); format: cell membranes, Membrane; details: cho-k1; also: in other assays of this panel Not Active means under 50% inhibition at 10 µM
T1 sequence (P25025 whole entry): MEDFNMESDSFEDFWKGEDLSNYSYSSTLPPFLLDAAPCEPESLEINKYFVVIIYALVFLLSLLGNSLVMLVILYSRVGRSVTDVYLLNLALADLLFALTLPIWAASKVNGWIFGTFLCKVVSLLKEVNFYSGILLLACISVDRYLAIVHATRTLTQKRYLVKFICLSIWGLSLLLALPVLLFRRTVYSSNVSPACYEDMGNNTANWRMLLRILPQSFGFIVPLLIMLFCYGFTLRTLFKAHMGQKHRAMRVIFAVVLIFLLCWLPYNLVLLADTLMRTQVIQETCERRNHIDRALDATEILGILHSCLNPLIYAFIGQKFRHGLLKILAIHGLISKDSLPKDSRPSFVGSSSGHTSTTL

[2] = biological target: T2, Cholecystokinin receptor type A (Homo sapiens, UniProt P32238); format: cell membranes, Membrane; details: 1321-n1; also: in other assays of this panel Not Active means under 50% inhibition at 10 µM
T2 sequence (P32238 whole entry): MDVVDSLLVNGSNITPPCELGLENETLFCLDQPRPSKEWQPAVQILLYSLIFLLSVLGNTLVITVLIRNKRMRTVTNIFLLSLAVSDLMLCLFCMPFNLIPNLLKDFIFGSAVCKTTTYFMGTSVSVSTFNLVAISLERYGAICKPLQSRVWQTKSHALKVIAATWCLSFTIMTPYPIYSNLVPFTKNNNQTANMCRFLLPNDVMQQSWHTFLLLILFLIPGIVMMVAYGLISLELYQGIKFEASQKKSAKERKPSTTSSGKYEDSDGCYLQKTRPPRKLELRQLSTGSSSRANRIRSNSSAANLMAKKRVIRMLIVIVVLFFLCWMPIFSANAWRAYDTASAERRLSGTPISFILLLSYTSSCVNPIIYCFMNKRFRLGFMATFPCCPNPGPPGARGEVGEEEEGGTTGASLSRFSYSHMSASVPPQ

D(1A) dopamine receptor = D(1A) dopamine receptor (Homo sapiens, UniProt P21728); experiment: DRUGMATRIX: Dopamine D1 radioligand binding (ligand: [3H] SCH-23390); format: cell membranes, Membrane; details: cho; Not Active = under 50% inhibition at 10 µM
D(3) dopamine receptor = D(3) dopamine receptor (Homo sapiens, UniProt P35462); experiment: DRUGMATRIX: Dopamine D3 radioligand binding (ligand: [3H] Spiperone); format: cell membranes, CHO, Membrane; details: cho
[3] = biological target: Sodium-dependent dopamine transporter (Homo sapiens, UniProt Q01959); experiment: DRUGMATRIX: Dopamine Transporter radioligand binding (ligand: [125I] RTI-55); format: cell membranes, CHO-K1, Membrane; details: cho-k1; Not Active = under 50% inhibition at 10 µM
Glycine receptor = Glycine receptor (Rattus norvegicus, UniProt P22771+P24524+P07727+P20781); format: cell membranes, Wistar, Spinal cord, Membrane; also: in other assays of this panel Not Active means under 50% inhibition at 10 µM
Histamine H2 receptor = Histamine H2 receptor (Homo sapiens, UniProt P25021); format: cell membranes, CHO-K1, Membrane; details: cho-k1; also: in other assays of this panel Not Active means under 50% inhibition at 10 µM
Melanocortin receptor 4 = Melanocortin receptor 4 (Homo sapiens, UniProt P32245); format: cell membranes, Membrane; details: hek293; also: in other assays of this panel Not Active means under 50% inhibition at 10 µM
Neutrophil elastase = biological target: T3, Neutrophil elastase (Homo sapiens, UniProt P08246); format: tissue-based
T3 sequence (P08246 whole entry): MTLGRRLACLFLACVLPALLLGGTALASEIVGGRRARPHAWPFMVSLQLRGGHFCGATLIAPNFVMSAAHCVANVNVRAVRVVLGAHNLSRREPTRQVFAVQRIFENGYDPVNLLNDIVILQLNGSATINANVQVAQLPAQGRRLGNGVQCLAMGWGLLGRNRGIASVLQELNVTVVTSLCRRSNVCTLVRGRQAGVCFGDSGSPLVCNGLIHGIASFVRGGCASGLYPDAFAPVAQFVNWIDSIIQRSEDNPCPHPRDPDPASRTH

[4] = biological target: Protein kinase C alpha type (Homo sapiens, UniProt P17252); format: cell-based; details: sf9
[5] = biological target: Receptor tyrosine-protein kinase erbB-2 (Homo sapiens, UniProt P04626); experiment: biochemical; format: cell-based, Insect cells; details: insect cells
[6] = DRUGMATRIX: Purinergic P2X radioligand binding (ligand: [3H] alpha, beta-Methylene-ATP); format: cell membranes, Oryctolagus cuniculus, New Zealand albino, Urinary bladder, Membrane; details: Not Active = under 50% inhibition at 10 µM
Glucocorticoid receptor = biological target: T4, Glucocorticoid receptor (Homo sapiens, UniProt P04150); details: hela s3; also: in other assays of this panel Not Active means under 50% inhibition at 10 µM
T4 sequence (P04150 whole entry): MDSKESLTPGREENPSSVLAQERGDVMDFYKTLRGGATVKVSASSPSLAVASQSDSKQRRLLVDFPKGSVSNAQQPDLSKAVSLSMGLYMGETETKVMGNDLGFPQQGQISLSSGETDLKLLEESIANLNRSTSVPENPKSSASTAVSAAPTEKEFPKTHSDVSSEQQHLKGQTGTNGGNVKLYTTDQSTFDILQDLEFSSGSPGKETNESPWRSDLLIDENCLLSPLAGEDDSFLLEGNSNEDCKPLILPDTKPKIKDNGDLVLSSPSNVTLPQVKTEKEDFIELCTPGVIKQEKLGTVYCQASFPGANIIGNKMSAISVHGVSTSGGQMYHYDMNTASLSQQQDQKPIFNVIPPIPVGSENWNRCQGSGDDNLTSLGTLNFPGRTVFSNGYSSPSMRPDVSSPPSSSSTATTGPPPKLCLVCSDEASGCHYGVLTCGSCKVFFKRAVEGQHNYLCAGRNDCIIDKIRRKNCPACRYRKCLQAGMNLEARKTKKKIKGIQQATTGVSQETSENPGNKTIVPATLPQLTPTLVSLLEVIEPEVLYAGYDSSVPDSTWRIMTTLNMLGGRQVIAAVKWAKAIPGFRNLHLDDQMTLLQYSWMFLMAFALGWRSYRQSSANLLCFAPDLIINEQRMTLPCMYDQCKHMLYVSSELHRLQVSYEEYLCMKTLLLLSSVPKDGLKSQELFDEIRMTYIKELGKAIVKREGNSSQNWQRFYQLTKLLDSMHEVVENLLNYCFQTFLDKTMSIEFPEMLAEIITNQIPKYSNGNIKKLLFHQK

Sequence of Histamine H2 receptor (P25021 whole entry): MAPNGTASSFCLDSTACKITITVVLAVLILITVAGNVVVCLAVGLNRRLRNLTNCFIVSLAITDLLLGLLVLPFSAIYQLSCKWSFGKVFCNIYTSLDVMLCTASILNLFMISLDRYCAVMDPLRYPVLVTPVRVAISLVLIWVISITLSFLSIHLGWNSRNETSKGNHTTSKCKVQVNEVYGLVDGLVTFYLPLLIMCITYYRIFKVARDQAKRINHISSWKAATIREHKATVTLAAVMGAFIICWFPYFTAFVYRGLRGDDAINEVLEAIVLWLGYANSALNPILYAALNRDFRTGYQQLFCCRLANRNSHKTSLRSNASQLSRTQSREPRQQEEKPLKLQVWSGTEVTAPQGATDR
Sequence of Receptor tyrosine-protein kinase erbB-2 (P04626 whole entry): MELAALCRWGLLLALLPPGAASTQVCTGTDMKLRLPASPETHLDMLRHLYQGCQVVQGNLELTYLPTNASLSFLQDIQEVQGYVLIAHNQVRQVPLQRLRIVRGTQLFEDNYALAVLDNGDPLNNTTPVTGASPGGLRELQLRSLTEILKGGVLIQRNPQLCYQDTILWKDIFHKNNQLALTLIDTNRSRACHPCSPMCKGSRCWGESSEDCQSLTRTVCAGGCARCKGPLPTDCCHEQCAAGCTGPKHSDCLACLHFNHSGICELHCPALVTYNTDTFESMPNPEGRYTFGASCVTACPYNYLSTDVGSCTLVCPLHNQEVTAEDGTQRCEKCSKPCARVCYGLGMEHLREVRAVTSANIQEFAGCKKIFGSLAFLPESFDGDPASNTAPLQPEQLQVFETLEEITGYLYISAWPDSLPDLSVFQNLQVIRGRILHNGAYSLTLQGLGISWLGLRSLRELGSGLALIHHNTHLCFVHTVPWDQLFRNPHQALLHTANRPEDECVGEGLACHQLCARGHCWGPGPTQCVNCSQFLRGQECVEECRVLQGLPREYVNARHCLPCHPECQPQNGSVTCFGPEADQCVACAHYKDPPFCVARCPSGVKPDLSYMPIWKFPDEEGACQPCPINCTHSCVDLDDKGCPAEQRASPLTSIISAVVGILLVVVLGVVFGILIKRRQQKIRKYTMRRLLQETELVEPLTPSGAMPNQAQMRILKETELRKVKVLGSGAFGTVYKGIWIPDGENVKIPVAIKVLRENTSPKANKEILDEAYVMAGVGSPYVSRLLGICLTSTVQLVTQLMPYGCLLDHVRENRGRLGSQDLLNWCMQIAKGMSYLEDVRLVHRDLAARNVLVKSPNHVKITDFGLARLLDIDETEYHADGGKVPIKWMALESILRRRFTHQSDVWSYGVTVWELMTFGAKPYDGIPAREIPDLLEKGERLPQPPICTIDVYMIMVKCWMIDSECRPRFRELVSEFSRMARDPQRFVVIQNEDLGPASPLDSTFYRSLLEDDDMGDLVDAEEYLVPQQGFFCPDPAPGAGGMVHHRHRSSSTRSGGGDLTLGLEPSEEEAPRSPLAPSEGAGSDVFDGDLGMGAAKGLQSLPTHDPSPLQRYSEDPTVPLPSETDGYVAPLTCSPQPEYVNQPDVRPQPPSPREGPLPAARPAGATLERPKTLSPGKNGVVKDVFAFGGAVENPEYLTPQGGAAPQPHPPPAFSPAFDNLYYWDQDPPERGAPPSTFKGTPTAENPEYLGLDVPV
Sequence of D(3) dopamine receptor (P35462 whole entry): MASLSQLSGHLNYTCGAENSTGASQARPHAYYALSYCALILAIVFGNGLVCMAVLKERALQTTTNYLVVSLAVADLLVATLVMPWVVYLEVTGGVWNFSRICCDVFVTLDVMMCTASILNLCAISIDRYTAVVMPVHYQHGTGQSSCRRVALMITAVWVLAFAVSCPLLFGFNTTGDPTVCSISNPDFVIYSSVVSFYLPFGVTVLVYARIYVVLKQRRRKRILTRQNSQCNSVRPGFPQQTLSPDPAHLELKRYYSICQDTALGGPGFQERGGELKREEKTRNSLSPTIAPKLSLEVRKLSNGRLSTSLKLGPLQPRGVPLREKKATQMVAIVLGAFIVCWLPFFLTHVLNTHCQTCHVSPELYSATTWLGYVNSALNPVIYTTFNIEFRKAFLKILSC
Sequence of Sodium-dependent dopamine transporter (Q01959 whole entry): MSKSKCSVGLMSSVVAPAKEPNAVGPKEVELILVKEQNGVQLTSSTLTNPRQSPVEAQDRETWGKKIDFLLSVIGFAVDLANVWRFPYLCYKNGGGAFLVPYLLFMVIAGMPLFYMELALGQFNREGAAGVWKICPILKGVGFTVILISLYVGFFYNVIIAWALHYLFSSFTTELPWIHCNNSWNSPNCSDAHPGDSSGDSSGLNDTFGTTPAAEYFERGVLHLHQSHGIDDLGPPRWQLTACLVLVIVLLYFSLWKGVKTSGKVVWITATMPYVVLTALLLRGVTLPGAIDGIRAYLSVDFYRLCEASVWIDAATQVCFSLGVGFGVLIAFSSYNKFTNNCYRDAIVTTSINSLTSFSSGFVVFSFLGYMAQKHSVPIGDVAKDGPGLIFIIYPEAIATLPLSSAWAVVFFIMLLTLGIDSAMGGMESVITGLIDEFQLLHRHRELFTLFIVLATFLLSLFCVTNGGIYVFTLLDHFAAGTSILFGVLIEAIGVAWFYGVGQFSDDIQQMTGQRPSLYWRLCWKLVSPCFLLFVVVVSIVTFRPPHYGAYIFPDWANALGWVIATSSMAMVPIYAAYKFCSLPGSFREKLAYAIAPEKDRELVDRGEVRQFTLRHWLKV
Sequence of D(1A) dopamine receptor (P21728 whole entry): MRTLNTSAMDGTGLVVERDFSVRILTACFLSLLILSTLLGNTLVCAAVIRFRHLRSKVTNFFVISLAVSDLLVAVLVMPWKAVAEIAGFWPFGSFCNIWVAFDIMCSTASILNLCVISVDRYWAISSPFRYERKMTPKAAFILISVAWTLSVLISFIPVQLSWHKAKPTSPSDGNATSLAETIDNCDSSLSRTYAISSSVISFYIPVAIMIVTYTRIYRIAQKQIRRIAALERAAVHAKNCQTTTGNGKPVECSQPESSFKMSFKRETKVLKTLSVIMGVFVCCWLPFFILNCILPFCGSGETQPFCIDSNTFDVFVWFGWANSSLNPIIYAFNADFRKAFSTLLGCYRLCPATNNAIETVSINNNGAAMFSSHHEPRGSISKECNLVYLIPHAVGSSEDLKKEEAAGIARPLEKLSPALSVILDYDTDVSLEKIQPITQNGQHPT
Sequence of Melanocortin receptor 4 (P32245 whole entry): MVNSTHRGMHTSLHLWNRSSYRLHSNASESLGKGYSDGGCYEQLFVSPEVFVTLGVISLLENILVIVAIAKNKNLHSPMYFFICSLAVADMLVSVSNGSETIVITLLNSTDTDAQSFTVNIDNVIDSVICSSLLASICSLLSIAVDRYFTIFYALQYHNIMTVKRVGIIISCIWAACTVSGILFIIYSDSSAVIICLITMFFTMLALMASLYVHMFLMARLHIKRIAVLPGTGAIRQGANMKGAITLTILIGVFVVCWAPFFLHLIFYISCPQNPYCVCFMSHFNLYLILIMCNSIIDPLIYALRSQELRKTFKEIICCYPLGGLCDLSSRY

CN1C(C(=O)Nc2ccccn2)=C(O)c2sccc2S1(=O)=O [TENOXICAM]
Not Active: IC50 [1] | IC50 [2] | IC50 (D(1A) dopamine receptor) | IC50 (D(3) dopamine receptor) | IC50 [3] | IC50 (Glycine receptor) | IC50 (Histamine H2 receptor) | IC50 (Melanocortin receptor 4) | IC50 (Neutrophil elastase) | IC50 [4] | IC50 [5] | IC50 [6] | Ki [6] | IC50 (Glucocorticoid receptor)

O=C1CCC(N2C(=O)c3ccccc3C2=O)C(=O)N1 (configuration not stated) [THALIDOMIDE]
Not Active: IC50 [1] | IC50 [2] | IC50 (D(1A) dopamine receptor) | IC50 (D(3) dopamine receptor) | IC50 [3] | IC50 (Glycine receptor) | IC50 (Histamine H2 receptor) | IC50 (Melanocortin receptor 4) | IC50 (Neutrophil elastase) | IC50 [4] | IC50 [5] | IC50 [6] | Ki [6] | IC50 (Glucocorticoid receptor)

Cc1cccc(Nc2ccncc2S(=O)(=O)NC(=O)NC(C)C)c1 [TORSEMIDE]
Not Active: IC50 [1] | IC50 [2] | IC50 (D(1A) dopamine receptor) | IC50 (D(3) dopamine receptor) | IC50 [3] | IC50 (Glycine receptor) | IC50 (Histamine H2 receptor) | IC50 (Melanocortin receptor 4) | IC50 (Neutrophil elastase) | IC50 [4] | IC50 [5] | IC50 [6] | Ki [6] | IC50 (Glucocorticoid receptor)

CC(C)C[C@H](NC(=O)[C@@H](O)[C@H](N)Cc1ccccc1)C(=O)O [UBENIMEX]
Not Active: IC50 [1] | IC50 [2] | IC50 (D(1A) dopamine receptor) | IC50 (D(3) dopamine receptor) | IC50 [3] | IC50 (Glycine receptor) | IC50 (Histamine H2 receptor) | IC50 (Melanocortin receptor 4) | IC50 (Neutrophil elastase) | IC50 [4] | IC50 [5] | IC50 [6] | Ki [6] | IC50 (Glucocorticoid receptor)

Cc1onc(-c2ccccc2)c1-c1ccc(S(N)(=O)=O)cc1 [VALDECOXIB]
Not Active: IC50 [1] | IC50 [2] | IC50 (D(1A) dopamine receptor) | IC50 (D(3) dopamine receptor) | IC50 [3] | IC50 (Glycine receptor) | IC50 (Histamine H2 receptor) | IC50 (Melanocortin receptor 4) | IC50 (Neutrophil elastase) | IC50 [4] | IC50 [5] | IC50 [6] | Ki [6] | IC50 (Glucocorticoid receptor)

CC[C@]1(O)C[C@@H]2CN(CCc3c([nH]c4ccccc34)[C@@](C(=O)OC)(c3cc4c(cc3OC)N(C)[C@H]3[C@@](O)(C(=O)OC)[C@H](OC(C)=O)[C@]5(CC)C=CCN6CC[C@]43[C@@H]65)C2)C1 [VINBLASTINE]
Not Active: IC50 [1] | IC50 [2] | IC50 (D(1A) dopamine receptor) | IC50 (D(3) dopamine receptor) | IC50 [3] | IC50 (Glycine receptor) | IC50 (Histamine H2 receptor) | IC50 (Melanocortin receptor 4) | IC50 (Neutrophil elastase) | IC50 [4] | IC50 [5] | IC50 [6] | Ki [6] | IC50 (Glucocorticoid receptor)

C[C@@H](N)[C@H]1CC[C@H](C(=O)Nc2ccncc2)CC1 [Y-27632]
Not Active: IC50 [1] | IC50 [2] | IC50 (D(1A) dopamine receptor) | IC50 (D(3) dopamine receptor) | IC50 [3] | IC50 (Glycine receptor) | IC50 (Histamine H2 receptor) | IC50 (Melanocortin receptor 4) | IC50 (Neutrophil elastase) | IC50 [4] | IC50 [5] | IC50 [6] | Ki [6] | IC50 (Glucocorticoid receptor)

[Cl-].[Cl-].[Zn+2] [ZINC CHLORIDE]
Not Active: IC50 [1] | IC50 [2] | IC50 (D(1A) dopamine receptor) | IC50 (D(3) dopamine receptor) | IC50 [3] | IC50 (Glycine receptor) | IC50 (Histamine H2 receptor) | IC50 (Melanocortin receptor 4) | IC50 (Neutrophil elastase) | IC50 [4] | IC50 [5] | IC50 [6] | Ki [6] | IC50 (Glucocorticoid receptor)
